Laboratory results published in US10202360B2 (CELGENE QUANTICEL RESEARCH, INC., priority 2016, dated 2019).

Biological target: CREBBP (Homo sapiens (Human), UniProt Q92793)
Assay: In vitro enzyme inhibition assay - CREBBP inhibition (AlphaScreen, biotinylated H4-tetraacetyl peptide)
Type: binding
Conditions: Table 28; AlphaScreen, H4-tetraacetyl peptide
Outline: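 Displacement of 20 nM biotinylated tetraacetyl-H4 peptide from 50 nM E. coli-expressed His-CREBBP, measured by AlphaScreen after bead equilibration for 2 h.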

Sequence of CREBBP (Q92793 1081-1197): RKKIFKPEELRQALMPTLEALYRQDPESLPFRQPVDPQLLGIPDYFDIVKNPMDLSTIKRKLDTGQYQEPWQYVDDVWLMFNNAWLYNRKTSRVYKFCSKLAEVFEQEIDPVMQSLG

Row | Compound | IC50 [nM]
1 | CC[C@H](C)S(=O)(=O)Nc1cc(-c2ccc(=O)n(C)c2)nc(Oc2c(C)cccc2F)n1 [Example 202, (S)-N-(2-(2-fluoro-6-methylphenoxy)-6-(1-methyl-6-oxo-1,6-dihydropyridin-3-yl)pyrimidin-4-yl)butane-2-sulfonamide] | < 500
2 | CC[C@@H](C)S(=O)(=O)Nc1cc(-c2ccc(=O)n(C)c2)nc(Oc2c(C)cccc2F)n1 [Example 203, (R)-N-(2-(2-fluoro-6-methylphenoxy)-6-(1-methyl-6-oxo-1,6-dihydropyridin-3-yl)pyrimidin-4-yl)butane-2-sulfonamide] | < 500
3 | CC[C@@H](C)S(=O)(=O)Nc1cc(-c2ccc(=O)n(C)c2)nc(Oc2c(C)cccc2Cl)n1 [Example 204, Butane-(2R)-sulfonic acid [2-(2-chloro-6-methyl-phenoxy)-6-(1-methyl-6-oxo-1,6-dihydro-pyridin-3-yl)-pyrimidin-4-yl]-amide] | < 500
4 | CC[C@H](C)S(=O)(=O)Nc1cc(-c2ccc(=O)n(C)c2)nc(Oc2c(C)cccc2Cl)n1 [Example 205, Butane-(2S)-sulfonic acid [2-(2-chloro-6-mehtyl-phenoxy)-6-(1-methyl-6-oxo-1,6-dihydro-pyridin-3-yl)-pyrimidin-4-yl]-amide] | < 500
5 | CC[C@H](C)S(=O)(=O)Nc1cc(-c2ccc(=O)n(C)c2)nc(Oc2c(F)cccc2Cl)n1 [Example 206, Butane-(2S)-sulfonic acid [2-(2-chloro-6-fluoro-phenoxy)-6-(1-methyl-6-oxo-1,6-dihydro-pyridin-3-yl)-pyrimidin-4-yl]-amide] | < 500
6 | CC[C@@H](C)S(=O)(=O)Nc1cc(-c2ccc(=O)n(C)c2)nc(Oc2c(F)cccc2Cl)n1 [Example 207, Butane-(2R)-sulfonic acid [2-(2-chloro-6-fluoro-phenoxy)-6-(1-methyl-6-oxo-1,6-dihydro-pyridin-3-yl)-pyrimidin-4-yl]-amide] | < 500
7 | CC[C@@H](C)S(=O)(=O)Nc1cc(-c2ccc(=O)n(C)c2)nc(Oc2c(F)cccc2OC)n1 [Example 208, Butane-(2R)-sulfonic acid [2-(2-fluoro-6-methoxy-phenoxy)-6-(1-methyl-6-oxo-1,6-dihydro-pyridin-3-yl)-pyrimidin-4-yl]-amide] | < 500
8 | CC[C@H](C)S(=O)(=O)Nc1cc(-c2ccc(=O)n(C)c2)nc(Oc2c(F)cccc2OC)n1 [Example 209, Butane-(2S)-sulfonic acid [2-(2-fluoro-6-methoxy-phenoxy)-6-(1-methyl-6-oxo-1,6-dihydro-pyridin-3-yl)-pyrimidin-4-yl]-amide] | < 500
9 | CC[C@@H](C)S(=O)(=O)Nc1cc(-c2ccc(=O)n(C)c2)nc(Oc2c(F)cccc2C2CC2)n1 [Example 210, Butane-(2R)-sulfonic acid [2-(2-cyclopropyl-6-fluoro-phenoxy)-6-(1-methyl-6-oxo-1,6-dihydro-pyridin-3-yl)-pyrimidin-4-yl]-amide] | < 500
10 | CC[C@H](C)S(=O)(=O)Nc1cc(-c2ccc(=O)n(C)c2)nc(Oc2c(C)cccc2C2CC2)n1 [Example 211, Butane-(2S)-sulfonic acid [2-(2-cylcopropyl-6-methyl-phenoxy)-6-(1-methyl-6-oxo-1,6-dihydro-pyridin-3-yl)-pyrimidin-4-yl]-amide] | < 500
11 | CC[C@@H](C)S(=O)(=O)Nc1cc(-c2ccc(=O)n(C)c2)nc(Oc2c(C)ccc(F)c2F)n1 [Example 212, (2R)-Butane-2-sulfonic acid [2-(2,3-difluoro-6-methyl-phenoxy)-6-(1-methyl-6-oxo-1,6-dihydro-pyridin-3-yl)-pyrimidin-4-yl]-amide] | < 500
12 | CC[C@H](C)S(=O)(=O)Nc1cc(-c2ccc(=O)n(C)c2)nc(Oc2c(C)ccc(F)c2F)n1 [Example 213, (2S)-Butane-2-sulfonic acid [2-(2,3-difluoro-6-methyl-phenoxy)-6-(1-methyl-6-oxo-1,6-dihydro-pyridin-3-yl)-pyrimidin-4-yl]-amide] | < 500
13 | CCc1cccc(F)c1Oc1nc(NS(=O)(=O)[C@H](C)CC)cc(-c2ccc(=O)n(C)c2)n1 [Example 214, (2R)-Butane-2-sulfonic acid [2-(2-ethyl-6-fluoro-phenoxy)-6-(1-methyl-6-oxo-1,6-dihydro-pyridin-3-yl)-pyrimidin-4-yl]-amide] | < 500
14 | CCc1cccc(F)c1Oc1nc(NS(=O)(=O)[C@@H](C)CC)cc(-c2ccc(=O)n(C)c2)n1 [Example 215, (2S)-Butane-2-sulfonic acid [2-(2-ethyl-6-fluoro-phenoxy)-6-(1-methyl-6-oxo-1,6-dihydro-pyridin-3-yl)-pyrimidin-4-yl]-amide] | < 500
15 | CCC[C@H](C)S(=O)(=O)Nc1cc(-c2ccc(=O)n(C)c2)nc(Oc2c(C)cccc2F)n1 [Example 216, (2S)-Pentane-2-sulfonic acid [2-(2-fluoro-6-methyl-phenoxy)-6-(1-methyl-6-oxo-1,6-dihydro-pyridin-3-yl)-pyrimidin-4-yl]-amide] | < 500
16 | CCC[C@H](C)S(=O)(=O)Nc1cc(-c2ccc(=O)n(C)c2)nc(Oc2c(C)cccc2Cl)n1 [Example 217, (2S)-Pentane-2-sulfonic acid [2-(2-chloro-6-methyl-phenoxy)-6-(1-methyl-6-oxo-1,6-dihydro-pyridin-3-yl)-pyrimidin-4-yl]-amide] | < 500
17 | CCC[C@H](C)S(=O)(=O)Nc1cc(-c2ccc(=O)n(C)c2)nc(Oc2c(F)cccc2Cl)n1 [Example 218, (2S)-Pentane-2-sulfonic acid [2-(2-chloro-6-fluoro-phenoxy)-6-(1-methyl-6-oxo-1,6-dihydro-pyridin-3-yl)-pyrimidin-4-yl]-amide] | < 500
18 | CCC[C@@H](C)S(=O)(=O)Nc1cc(-c2ccc(=O)n(C)c2)nc(Oc2c(C)cccc2F)n1 [Example 219, (2R)-Pentane-2-sulfonic acid [2-(2-fluoro-6-methyl-phenoxy)-6-(1-methyl-6-oxo-1,6-dihydro-pyridin-3-yl)-pyrimidin-4-yl]-amide] | < 500
19 | CCC[C@@H](C)S(=O)(=O)Nc1cc(-c2ccc(=O)n(C)c2)nc(Oc2c(F)cccc2Cl)n1 [Example 220, (2R)-Pentane-2-sulfonic acid [2-(2-chloro-6-fluoro-phenoxy)-6-(1-methyl-6-oxo-1,6-dihydro-pyridin-3-yl)-pyrimidin-4-yl]-amide] | < 500
20 | CCC[C@@H](C)S(=O)(=O)Nc1cc(-c2ccc(=O)n(C)c2)nc(Oc2c(C)cccc2Cl)n1 [Example 221, (2R)-Pentane-2-sulfonic acid [2-(2-chloro-6-methyl-phenoxy)-6-(1-methyl-6-oxo-1,6-dihydro-pyridin-3-yl)-pyrimidin-4-yl]-amide] | < 500
21 | CC[C@H](C)S(=O)(=O)Nc1cc(-c2cc(C)c(=O)n(C)c2)nc(Oc2c(C)cccc2Cl)n1 [Example 222, (S)-N-(2-(2-chloro-6-methylphenoxy)-6-(1,5-dimethyl-6-oxo-1,6-dihydropyridin-3-yl)pyrimidin-4-yl)butane-2-sulfonamide] | < 500
22 | CCC[C@H](C)S(=O)(=O)Nc1cc(-c2cc(C)c(=O)n(C)c2)nc(Oc2c(C)cccc2Cl)n1 [Example 223, (S)-N-(2-(2-chloro-6-methylphenoxy)-6-(1,5-dimethyl-6-oxo-1,6-dihydropyridin-3-yl)pyrimidin-4-yl)pentane-2-sulfonamide] | < 500
